Read-outs that look alike come from different tables or passages of the source.
Columns and labels:
[1] = tested on: Huh-7 cells; assay: MTT in vitro cytotoxicity, Huh-7; format: cell-based, human
Procedure: (§1) Human lung cancer cells (NCI-H460, NCI-H1299, and A549), human breast cancer cells (MDA-MB-231, MDA-MB-453, and MCF-7), human liver cancer cells (Huh-7 and HepG2), human colon cancer cells (coca-2, HT-29, and HCT116), human cervical cancer cells (HeLa), human normal lung cells (BEAS-2B), and human normal […] (MCF-10) were from the State Key Laboratory of Pharmaceutical Biotechnology, Nanjing University. NCI-H460 were cultured in 1640 medium containing 10% fetal bovine serum (FBS). MDA-MB-231 were cultured in L15 medium containing 10% FBS without CO2, and other cell lines were cultured in DMEM medium containing 10% FBS CO2 in the incubator.
(§2) MTT assay was used to identify 14 different cell lines (human lung cancer cells NCI-H460, NCI-H1299, and A549; human breast cancer cells MDA-MB-231, MDA-MB-453, and MCF-7; human liver cancer cells Huh-7 and HepG2; human colon cancer cells coca-2, HT-29, and HCT116; and human cervical cancer cells HeLa) and 2 kinds of normal cell lines (human normal lung epithelial cells BEAS-2B, human normal breast epithelial cells MCF10-A) for quantitative analysis ([15]). In addition, 10-HCPT and palbociclib were used as positive control.
(§3) Cells were harvested during the logarithmic growth phase and seeded into 96-well plates at a density of 2.0×10^3 cells/well. After being incubated for 24 h, the cells were treated with different concentrations of various culture programs for 48 h. Afterwards, 20 μl of MTT solution (5 mg/ml) was added to each well, and the cells were incubated in a 5% CO2 atmosphere at 37°C for another 4 h. Then, the supernatant was discarded, and the formazan crystals were dissolved in 150 μl DMSO. Subsequently, the absorbance was measured at 570 nm via a Tecan microplate reader. The concentration that caused 50% inhibition of cell viability (IC50) values was calculated by GraphPad Software. Triplicate experiments were performed in parallel for each concentration, and the results are shown as the mean ± SD. The inhibitory ratio was calculated using the following formula: inhibitory ratio (%) = [1−(mean absorbance of experiment group)/(mean absorbance of control group)] × 100.

[2] = tested on: HepG2 cells; assay: MTT in vitro cytotoxicity, HepG2; format: cell-based, human
Procedure: as §1, §2, §3

[3] = tested on: NCI-H1299 cells; assay: MTT in vitro cytotoxicity, NCI-H1299; format: cell-based, human
Procedure: as §1, §2, §3

[4] = tested on: MCF10-A cells; assay: MTT in vitro cytotoxicity, MCF10-A normal breast epithelial cells; format: cell-based, human; settings: MCF-10A, 48 h
Procedure: as §1, §2, §3

[5] = tested on: MCF-7 cells; assay: MTT in vitro cytotoxicity, MCF-7; format: cell-based, human
Procedure: as §1, §2, §3

[6] = tested on: Hela cells; assay: MTT in vitro cytotoxicity, Hela; format: cell-based, human; settings: 48 h
Procedure: as §1, §2, §3

[7] = tested on: MDA-MB-231 cells; assay: MTT in vitro cytotoxicity, MDA-MB-231; format: cell-based, human
Procedure: as §1, §2, §3

[8] = tested on: HCT116 cells; assay: MTT in vitro cytotoxicity, HCT116; format: cell-based, human
Procedure: as §1, §2, §3

[9] = tested on: BEAS-2B cells; assay: MTT in vitro cytotoxicity, BEAS-2B normal lung epithelial cells; format: cell-based, human; settings: 48 h
Procedure: as §1, §2, §3

[10] = tested on: HT-29 cells; assay: MTT in vitro cytotoxicity, HT-29; format: cell-based, human
Procedure: as §1, §2, §3

[11] = tested on: MDA-MB-453 cells; assay: MTT in vitro cytotoxicity, MDA-MB-453; format: cell-based, human
Procedure: as §1, §2, §3

[12] = tested on: NCI-H460 cells; assay: MTT in vitro cytotoxicity, NCI-H460; format: cell-based, human
Procedure: as §1, §2, §3

[13] = tested on: A549 cells; assay: MTT in vitro cytotoxicity, A549; format: cell-based, human
Procedure: as §1, §2, §3

[14] = tested on: Coca-2 cells; assay: MTT in vitro cytotoxicity, Coca-2; format: cell-based, human; settings: 48 h
Procedure: as §1, §2, §3

SMILES: CC[C@@]1(O)C(=O)OCc2c1cc1n(c2=O)Cc2cc3cc(O)ccc3nc2-1 [10-HCPT, 10-hydroxycamptothecin, reference compound]
- IC50 ([1]; Homo sapiens, Huh-7, 48 h): 7.69 ± 0.84 µM
- IC50 ([2]; Homo sapiens, HepG2, 48 h): 2.45 ± 0.27 µM
- IC50 ([3]; Homo sapiens, NCI-H1299, 48 h): 3.39 ± 0.16 µM
- IC50 ([4]; Homo sapiens): 20.3 ± 0.59 µM
- IC50 ([5]; Homo sapiens, MCF7, 48 h): 13.2 ± 0.31 µM
- IC50 ([6]; Homo sapiens, HeLa): 6.54 ± 0.07 µM
- IC50 ([7]; Homo sapiens, MDA-MB-231, 48 h): 15.5 ± 1.07 µM
- IC50 ([8]; Homo sapiens, HCT-116, 48 h): 10.4 ± 0.7 µM
- IC50 ([9]; Homo sapiens, BEAS-2B): 7.05 ± 0.52 µM
- IC50 ([10]; Homo sapiens, HT-29, 48 h): 4.61 ± 0.19 µM
- IC50 ([11]; Homo sapiens, MDA-MB-453, 48 h): 5.73 ± 0.62 µM
- IC50 ([12]; Homo sapiens, NCI-H460, 48 h): 1.96 ± 0.01 µM
- IC50 ([13]; Homo sapiens, A549, 48 h): 4.14 ± 0.03 µM
- IC50 ([14]; Homo sapiens): 13.4 ± 0.34 µM

SMILES: CC[C@]1(O)C(=O)OCc2c1cc1n(c2=O)Cc2cc3cc(OC(=O)CCC(=O)N4CCN(c5ccc(Nc6ncc7c(C)c(C(C)=O)c(=O)n(C8CCCC8)c7n6)nc5)CC4)ccc3nc2-1 [HP-2, (R)-4-ethyl-4-hydroxy-3,14-dioxo-3,4,12,14-tetrahydro-1H-pyrano[3’,4’:6,7] indolizino[1,2-b]quinolin-9-yl4-(4-(6-((6-acetyl-8-cyclopentyl-5-methyl-7-oxo-7,8-dihydropyrido[2,3-d]pyrimidin-2-yl)amino)pyridin-3-yl)piperazin-1-yl)-4-oxobutanoate]
- IC50 ([1]; Huh-7 human liver cancer cells, MTT, 48 h, read-out: IC50): 16.5 ± 1.76 µM
- IC50 ([2]; HepG2 human liver cancer cells, MTT, 48 h, read-out: IC50): 8.11 ± 1.34 µM
- IC50 ([3]; NCI-H1299 human lung cancer cells, MTT, 48 h, read-out: IC50): 3.35 ± 0.01 µM
- IC50 ([4]; MCF10-A human normal breast epithelial cells, MTT, read-out: IC50): 31.38 ± 0.23 µM
- IC50 ([5]; MCF7, MCF-7 human breast cancer cells, MTT, 48 h, read-out: IC50): 16.7 ± 0.59 µM
- IC50 ([6]; Hela human cervical cancer cells, MTT, read-out: IC50): 7.82 ± 2.34 µM
- IC50 ([7]; MDA-MB-231 human breast cancer cells, MTT, 48 h, read-out: IC50): 16.5 ± 0.82 µM
- melting point: 48.9 to 50.5 °C
- IC50 ([8]; HCT-116, HCT116 human colon cancer cells, MTT, 48 h, read-out: IC50): 19.6 ± 1.21 µM
- IC50 ([9]; BEAS-2B human normal lung epithelial cells, MTT, read-out: IC50): 34.8 ± 0.44 µM
- IC50 ([10]; HT-29 human colon cancer cells, MTT, 48 h, read-out: IC50): 11.6 ± 0.57 µM
- IC50 ([11]; MDA-MB-453 human breast cancer cells, MTT, 48 h, read-out: IC50): 6.38 ± 0.97 µM
- IC50 ([12]; NCI-H460 human lung cancer cells, MTT, 48 h, read-out: IC50): 1.32 ± 0.01 µM
- IC50 ([13]; A549 human lung cancer cells, MTT, 48 h, read-out: IC50): 5.24 ± 0.37 µM
- IC50 ([14]; Coca-2 human colon cancer cells, MTT, read-out: IC50): 18.8 ± 0.46 µM

Source: publication PMC9453454, “Design, synthesis, and anticancer activity of three novel palbociclib derivatives” (Frontiers in Oncology, 2022)
